Assay results taken from patent US20110040088A1, “FUSED HETEROCYCLIC COMPOUNDS” (priority 2003, published 2011).
Read-outs that look alike come from different tables or passages of the source.

Tests used:
[1] = target: 5-HT2A receptor (UniProt P28223); experiment: 5-HT2A receptor radioligand binding ([3H]ketanserin); conditions: read-out: Ki 5-HT2A, table does not say whether rat cortex or human recombinant (NIH3T3) receptor;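 further: competitive displacement binding on membranes, either from rat cerebral cortex or from NIH3T3 cells stably expressing human 5-HT2A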
Method: The affinity of the compounds for the rat 5-HT2A receptor was evaluated by competitive radioligand binding assay using [^3H]ketanserine as the radioligand. The assay was performed on membranes from rat cortex as previously described (Schotte, A. et al., Psychopharmacology (1996) 124: 57-73). Briefly, brain tissue (rat cortex) was homogenized in 20 volumes per wet weight tissue of Tris-HCl buffer (50 mM, pH 7.4). The total membrane fraction was collected by centrifugation and washed by subsequent centrifugation runs (25 min at 25,000 g at 4° C.). Membranes were re-suspended in Tris-HCl buffer (50 mM, pH 7.4) containing 1 nM [^3H]ketanserin. Non-specific binding was estimated in the presence of 10 μM risperidone.

[2] = target: T1, rat 5-HT7a receptor (Rattus norvegicus, UniProt P32305); experiment: 5-HT7 receptor radioligand binding ([3H]5-CT, membranes of transfected HEK-293 cells); conditions: rat 5-HT7a in HEK-293 membranes, 1 nM [3H]5-CT
T1 construct: expressed in transfected cells

[3] = target: human recombinant 5-HT2B receptor (Homo sapiens, UniProt P41595); experiment: 5-HT2B receptor radioligand binding ([3H]mesulergine, CHO membranes);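 further: competitive displacement binding on membranes of CHO cells stably expressing the receptor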
Method: (§1) Affinity for 5HT2 Receptor Binding Sites
(§2) Receptor binding was performed using the human recombinant 5-HT2A (GB: X57830), 5-HT2B (GB: Z36748) and 5-HT2c (GB: M81778) receptors. The affinity of the compounds for the 3 different human 5-HT2 receptor subtypes was evaluated by competitive radioligand binding assays using [^3H]ketanserin (h5-HT2A) or [^3H]mesulergine (h5-HT2B and h5-HT2c). The assays were performed on membranes prepared from NIH3T3 stably transfected with h5-HT2A or CHO stably transfected with h5-HT2B and h5-HT2C.

[4] = target: T2, human recombinant 5-HT2C receptor (Homo sapiens, UniProt P28335); experiment: 5-HT2C receptor radioligand binding ([3H]mesulergine, CHO membranes);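 further: competitive displacement of the tritiated ligand, using membranes from CHO cells stably transfected with the human receptor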
T2 sequence (P28335 33-458): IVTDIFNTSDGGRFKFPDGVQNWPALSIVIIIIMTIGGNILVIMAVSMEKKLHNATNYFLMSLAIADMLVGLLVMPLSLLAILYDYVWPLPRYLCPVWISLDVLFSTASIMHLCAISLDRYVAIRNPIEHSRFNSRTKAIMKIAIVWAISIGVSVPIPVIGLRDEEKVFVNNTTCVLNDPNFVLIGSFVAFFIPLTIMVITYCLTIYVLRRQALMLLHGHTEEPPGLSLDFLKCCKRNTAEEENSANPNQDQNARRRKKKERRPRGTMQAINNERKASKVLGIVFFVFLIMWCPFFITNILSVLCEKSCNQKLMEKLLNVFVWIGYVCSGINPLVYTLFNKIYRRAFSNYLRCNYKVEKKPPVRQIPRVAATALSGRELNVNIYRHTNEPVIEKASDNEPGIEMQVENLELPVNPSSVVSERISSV
Method: as §1, §2

[5] = read-out: Ki 5-HT2C, h5-HT2C in CHO membranes, [3H]mesulergine

Sequence of human recombinant 5-HT2B receptor (P41595 whole entry): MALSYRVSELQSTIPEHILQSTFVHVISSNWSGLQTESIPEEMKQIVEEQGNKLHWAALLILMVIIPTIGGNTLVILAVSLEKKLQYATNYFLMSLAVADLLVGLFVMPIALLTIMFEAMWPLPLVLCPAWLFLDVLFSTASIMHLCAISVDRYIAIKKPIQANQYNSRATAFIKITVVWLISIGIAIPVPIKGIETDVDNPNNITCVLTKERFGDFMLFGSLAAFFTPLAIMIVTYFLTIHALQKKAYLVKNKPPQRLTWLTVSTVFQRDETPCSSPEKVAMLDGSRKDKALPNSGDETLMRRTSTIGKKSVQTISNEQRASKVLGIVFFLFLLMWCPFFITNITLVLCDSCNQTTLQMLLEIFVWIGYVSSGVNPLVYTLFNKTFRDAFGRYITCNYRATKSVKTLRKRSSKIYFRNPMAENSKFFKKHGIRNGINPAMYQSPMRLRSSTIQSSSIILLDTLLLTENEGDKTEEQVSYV
T1 sequence (P32305 whole entry): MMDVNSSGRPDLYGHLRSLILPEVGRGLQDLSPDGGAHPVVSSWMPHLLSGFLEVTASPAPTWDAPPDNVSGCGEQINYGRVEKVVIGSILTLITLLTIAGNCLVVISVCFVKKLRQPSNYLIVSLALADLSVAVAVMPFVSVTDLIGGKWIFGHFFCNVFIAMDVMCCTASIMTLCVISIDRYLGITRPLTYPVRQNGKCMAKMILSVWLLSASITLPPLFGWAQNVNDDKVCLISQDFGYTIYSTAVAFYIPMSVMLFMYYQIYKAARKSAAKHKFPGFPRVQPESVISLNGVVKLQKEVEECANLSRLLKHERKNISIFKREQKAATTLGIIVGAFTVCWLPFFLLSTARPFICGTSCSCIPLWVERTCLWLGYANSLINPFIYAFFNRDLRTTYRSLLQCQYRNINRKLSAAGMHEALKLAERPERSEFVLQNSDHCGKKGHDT

| SMILES | Ki [1] [nM] | Ki [2] [nM] | Ki [3] [nM] | Ki [4] [nM] | Ki [4, 5] [nM] | Ki ([3]; read-out: Ki 5-HT2B, h5-HT2B in CHO membranes, [3H]mesulergine) [nM] |
| --- | --- | --- | --- | --- | --- | --- |
| Fc1ccc(Cn2nc(-c3ccc(Cl)cc3)c3c2CCNCC3)cc1 [Example 75, 3-(4-Chloro-phenyl)-1-(4-fluoro-benzyl)-1,4,5,6,7,8-hexahydro-1,2,6-triaza-azulene] | 200 | 7 | 100 | 320 |  |  |
| Fc1cccc(Cn2nc(-c3ccc(Cl)cc3)c3c2CCNCC3)c1 [Example 76, 3-(4-Chloro-phenyl)-1-(3-fluoro-benzyl)-1,4,5,6,7,8-hexahydro-1,2,6-triaza-azulene] | 210 | 8 | 350 | 690 |  |  |
| Clc1ccc(-c2nn(Cc3cccs3)c3c2CCNCC3)cc1 [Example 103, 3-(4-Chloro-phenyl)-1-thiophen-2-ylmethyl-1,4,5,6,7,8-hexahydro-1,2,6-triaza-azulene] | 60 | 7.7 | 44 | 150 |  |  |
| c1ccc(Cn2nc(-c3cccs3)c3c2CCNCC3)cc1 [Example 104, 1-Benzyl-3-thiophen-2-yl-1,4,5,6,7,8-hexahydro-1,2,6-triaza-azulene] | 80 | 9 | 52 | 360 |  |  |
| CC(C)Cn1nc2c(c1-c1ccc(Cl)cc1)CCNCC2 [Example 131, 3-(4-Chloro-phenyl)-2-isobutyl-2,4,5,6,7,8-hexahydro-1,2,6-triaza-azulene] | 7 | 120 | 4.2 | 50 |  |  |
| c1ccc(Cn2nc3c(c2-c2ccccc2)CCNCC3)cc1 [Example 133, 2-Benzyl-3-phenyl-2,4,5,6,7,8-hexahydro-1,2,6-triaza-azulene] | 2.3 | 125 | 3.5 | 10 |  |  |
| Oc1ccc(Cn2nc(-c3ccc(Cl)cc3)c3c2CCNCC3)cc1F [Example 160, 4-[3-(4-Chloro-phenyl)-5,6,7,8-tetrahydro-4H-1,2,6-triaza-azulen-1-ylmethyl]-2-fluoro-phenol] | 300 | 7 | 350 | 3500 |  |  |
| CN1CCc2c(-c3ccc(Cl)cc3)nn(Cc3ccccc3)c2CC1 [Example 165, 1-Benzyl-3-(4-chloro-phenyl)-6-methyl-1,4,5,6,7,8-hexahydro-1,2,6-triaza-azulene] | 100 | 4 | 310 | 180 |  |  |
| CCN1CCc2c(-c3ccc(Cl)cc3)nn(Cc3ccccc3)c2CC1 [Example 166, 1-Benzyl-3-(4-chloro-phenyl)-6-ethyl-1,4,5,6,7,8-hexahydro-1,2,6-triaza-azulene] | 80 | 8 | 560 | 590 |  |  |
| c1ccc(-c2c3c(nn2C2CCCCC2)CCNCC3)cc1 [Example 177, 2-Cyclohexyl-3-phenyl-2,4,5,6,7,8-hexahydro-1,2,6-triaza-azulene] | 7 | 80 | 7 | 110 |  |  |
| c1ccc(-c2c3c(nn2C2CCCC2)CCNCC3)cc1 [Example 180, 2-Cyclopentyl-3-phenyl-2,4,5,6,7,8-hexahydro-1,2,6-triaza-azulene] | 1.5 | 10 | 1.4 | 12 |  |  |
| Clc1ccc(-c2c3c(nn2C2CCCC2)CCNCC3)cc1 [Example 181, 3-(4-Chloro-phenyl)-2-cyclopentyl-2,4,5,6,7,8-hexahydro-1,2,6-triaza-azulene] | 1.5 | 37 | 1.8 | 11 |  |  |
| Fc1ccc(-c2c3c(nn2C2CCCC2)CCNCC3)cc1 [Example 182, 2-Cyclopentyl-3-(4-fluoro-phenyl)-2,4,5,6,7,8-hexahydro-1,2,6-triaza-azulene] | 0.74 | 90 | 1.4 | 18 |  |  |
| CCC(CC)n1nc2c(c1-c1cccc(F)c1)CCNCC2 [Example 183, 2-(1-Ethyl-propyl)-3-(3-fluoro-phenyl)-2,4,5,6,7,8-hexahydro-1,2,6-triaza-azulene] | 7 | 240 | 54 | 70 |  |  |
| CCC(CC)n1nc2c(c1-c1ccc(F)cc1)CCNCC2 [Example 184, 2-(1-Ethyl-propyl)-3-(4-fluoro-phenyl)-2,4,5,6,7,8-hexahydro-1,2,6-triaza-azulene] | 1 | 120 | 17 | 15 |  |  |
| CCC(CC)n1nc2c(c1-c1ccccc1)CCNCC2 [Example 186, 2-(1-Ethyl-propyl)-3-phenyl-2,4,5,6,7,8-hexahydro-1,2,6-triaza-azulene] | 1 | 61 | 24 | 20 |  |  |

| SMILES | Ki [1] [nM] | Ki [2] [nM] | Ki [3] [nM] | Ki [4] [nM] | Ki [4, 5] [nM] | Ki ([3]; read-out: Ki 5-HT2B, h5-HT2B in CHO membranes, [3H]mesulergine) [nM] |
| --- | --- | --- | --- | --- | --- | --- |
| CC(C)n1nc2c(c1-c1ccc(F)cc1)CCNCC2 [Example 190, 3-(4-Fluoro-phenyl)-2-isopropyl-2,4,5,6,7,8-hexahydro-1,2,6-triaza-azulene] | 10 | 16 | 22 | 51 |  |  |
| c1cc(-c2c3c(nn2C2CCCC2)CCNCC3)cs1 [Example 192, 2-Cyclopentyl-3-thiophen-3-yl-2,4,5,6,7,8-hexahydro-1,2,6-triaza-azulene] | 2.5 | 20 | 0.9 | 15 |  |  |
| Cc1ccc(-c2c3c(nn2C(C)C)CCNCC3)cc1 [Example 209, 2-Isopropyl-3-p-tolyl-2,4,5,6,7,8-hexahydro-1,2,6-triaza-azulene] | 1.1 | 6 | 1.4 |  | 12 |  |
| CCc1ccc(-c2c3c(nn2C(C)C)CCNCC3)cc1 [Example 210, 3-(4-Ethyl-phenyl)-2-isopropyl-2,4,5,6,7,8-hexahydro-1,2,6-triaza-azulene] | 2 | 7 | 0.75 | 20 |  |  |
| CC(C)n1nc2c(c1-c1ccc(Cl)cc1)CCNCC2 [Example 211, 3-(4-Chloro-phenyl)-2-isopropyl-2,4,5,6,7,8-hexahydro-1,2,6-triaza-azulene] | 5 | 8.5 | 0.5 |  | 18 |  |
| CC(C)n1nc2c(c1-c1ccc(C#N)cc1)CCNCC2 [Example 212, 4-(2-Isopropyl-2,4,5,6,7,8-hexahydro-1,2,6-triaza-azulen-3-yl)-benzonitrile] | 25 | 93 |  | 425 |  | 12 |
| CC(C)n1nc2c(c1-c1ccc(C(F)(F)F)cc1)CCNCC2 [Example 213, 2-Isopropyl-3-(4-trifluoromethyl-phenyl)-2,4,5,6,7,8-hexahydro-1,2,6-triaza-azulene] | 7.5 | 12 | 4.7 |  | 80 |  |
| CC(C)(C)n1nc2c(c1-c1ccc(F)cc1)CCNCC2 [Example 216, 2-tert-Butyl-3-(4-fluoro-phenyl)-2,4,5,6,7,8-hexahydro-1,2,6-triaza-azulene] | 6 | 70 | 20 | 17 |  |  |
| Cc1ccc(-c2c3c(nn2C2CCCC2)CCNCC3)cc1 [Example 217, 2-Cyclopentyl-3-p-tolyl-2,4,5,6,7,8-hexahydro-1,2,6-triaza-azulene] | 1 | 25 | 0.65 | 10 |  |  |
| FC(F)(F)c1ccc(-c2c3c(nn2C2CCCC2)CCNCC3)cc1 [Example 218, 2-Cyclopentyl-3-(4-trifluoromethyl-phenyl)-2,4,5,6,7,8-hexahydro-1,2,6-triaza-azulene] | 1.7 | 75 | 1.8 | 15 |  |  |
| COc1ccc(-c2c3c(nn2C2CCCC2)CCNCC3)cc1 [Example 220, 2-Cyclopentyl-3-(4-methoxy-phenyl)-2,4,5,6,7,8-hexahydro-1,2,6-triaza-azulene] | 1.3 | 55 | 0.55 | 6.8 |  |  |
| c1cc(-c2c3c(nn2C2CCCC2)CCNCC3)co1 [Example 232, 2-Cyclopentyl-3-furan-3-yl-2,4,5,6,7,8-hexahydro-1,2,6-triaza-azulene] | 25 | 20 | 0.5 | 66 |  |  |
| c1csc(-c2c3c(nn2C2CCCC2)CCNCC3)c1 [Example 233, 2-Cyclopentyl-3-thiophen-2-yl-2,4,5,6,7,8-hexahydro-1,2,6-triaza-azulene] | 4 | 15 | 25 | 16 |  |  |
| Fc1ccc(-c2c3c(nn2C2CCCC2)CCNCC3)cc1F [Example 236, 2-Cyclopentyl-3-(3,4-difluoro-phenyl)-2,4,5,6,7,8-hexahydro-1,2,6-triaza-azulene] | 7 | 950 | 4.5 | 32 |  |  |
| Clc1ccc(-c2c3c(nn2C2CCC2)CCNCC3)cc1 [Example 238, 3-(4-Chloro-phenyl)-2-cyclobutyl-2,4,5,6,7,8-hexahydro-1,2,6-triaza-azulene] | 1 | 40 | 0.5 | 13 |  |  |
